Source: patent EP0527889B1, “QUINOLIZINONE TYPE COMPOUNDS” (priority 1990, dated 1991)
Structures can show the parent of a compound that is named as a salt.

How the values were obtained:
[1] = system: Acinetobacter calcoaceticus CMX 669; test: In vitro antibacterial activity, MIC by agar dilution; assay type: cell-based; details: BHI agar, 35-37°C, 20-24 hours, unit assumed
Summary of the method: (§1)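 Using a Steers replicator, about 10^4 CFU of each diluted organism were spotted on agar with test compound. After ~20–24 h at 35–37°C, MIC was taken as the lowest concentration without growth compared with compound-free BHI agar; ciprofloxacin served as reference antibiotic.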

[2] = system: Enterobacter aerogenes ATCC 13048; test: as above; assay type: cell-based; details: BHI agar, 35-37°C, 20-24 hours, unit assumed
Summary of the method: as §1

[3] = system: Enterococcus faecium ATCC 8043; test: as above; assay type: cell-based; details: BHI agar, 35-37°C, 20-24 hours, unit assumed
Summary of the method: as §1

Escherichia coli DC-2 = test: as above; assay type: cell-based; details: BHI agar, 35-37°C, 20-24 hours, unit assumed
Summary of the method: as §1

Escherichia coli H560 = test: as above; assay type: cell-based; details: BHI agar, 35-37°C, 20-24 hours, unit assumed
Summary of the method: as §1

Escherichia coli JUHL [4] = test: as above; assay type: cell-based; details: BHI agar, 35-37°C, 20-24 hours, unit assumed
Summary of the method: as §1

Escherichia coli KNK 437 = test: as above; assay type: cell-based; details: BHI agar, 35-37°C, 20-24 hours, unit assumed
Summary of the method: as §1

Escherichia coli SS = test: as above; assay type: cell-based; details: BHI agar, 35-37°C, 20-24 hours, unit assumed
Summary of the method: as §1

[5] = system: Klebsiella pneumoniae ATCC 8045; test: as above; assay type: cell-based; details: BHI agar, 35-37°C, 20-24 hours, unit assumed
Summary of the method: as §1

[6] = system: Micrococcus luteus ATCC 4698; test: as above; assay type: cell-based; details: BHI agar, 35-37°C, 20-24 hours, unit assumed
Summary of the method: as §1

[7] = system: Micrococcus luteus ATCC 9341; test: as above; assay type: cell-based; details: BHI agar, 35-37°C, 20-24 hours, unit assumed
Summary of the method: as §1

[8] = system: Providencia stuartii CMX 640; test: as above; assay type: cell-based; details: BHI agar, 35-37°C, 20-24 hours, unit assumed
Summary of the method: as §1

[9] = system: Pseudomonas aeruginosa 2862; test: as above; assay type: cell-based; details: BHI agar, 35-37°C, 20-24 hours, unit assumed
Summary of the method: as §1

[10] = system: Pseudomonas aeruginosa 5263; test: as above; assay type: cell-based; details: BHI agar, 35-37°C, 20-24 hours, unit assumed
Summary of the method: as §1

[11] = system: Pseudomonas aeruginosa A5007; test: as above; assay type: cell-based; details: BHI agar, 35-37°C, 20-24 hours, unit assumed
Summary of the method: as §1

[12] = system: Pseudomonas aeruginosa BMH10; test: as above; assay type: cell-based; details: BHI agar, 35-37°C, 20-24 hours, unit assumed
Summary of the method: as §1

[13] = system: Pseudomonas aeruginosa K799/61; test: as above; assay type: cell-based; details: BHI agar, 35-37°C, 20-24 hours, unit assumed
Summary of the method: as §1

[14] = system: Pseudomonas aeruginosa K799/WT; test: as above; assay type: cell-based; details: BHI agar, 35-37°C, 20-24 hours, unit assumed
Summary of the method: as §1

Pseudomonas cepacia 296I = test: as above; assay type: cell-based; details: BHI agar, 35-37°C, 20-24 hours, unit assumed
Summary of the method: as §1

[15] = system: Staphylococcus aureus 1775; test: as above; assay type: cell-based; details: BHI agar, 35-37°C, 20-24 hours, unit assumed
Summary of the method: as §1

[16] = system: Staphylococcus aureus 642A; test: as above; assay type: cell-based; details: BHI agar, 35-37°C, 20-24 hours, unit assumed
Summary of the method: as §1

[17] = system: Staphylococcus aureus A-5278; test: as above; assay type: cell-based; details: BHI agar, 35-37°C, 20-24 hours, unit assumed
Summary of the method: as §1

[18] = system: Staphylococcus aureus A5177; test: as above; assay type: cell-based; details: BHI agar, 35-37°C, 20-24 hours, unit assumed
Summary of the method: as §1

[19] = system: Staphylococcus aureus ATCC 6538P; test: as above; assay type: cell-based; details: BHI agar, 35-37°C, 20-24 hours, unit assumed
Summary of the method: as §1

[20] = system: Staphylococcus aureus CMX 553; test: as above; assay type: cell-based; details: BHI agar, 35-37°C, 20-24 hours, unit assumed
Summary of the method: as §1

[21] = system: Staphylococcus aureus NCTC 10649; test: as above; assay type: cell-based; details: BHI agar, 35-37°C, 20-24 hours, unit assumed
Summary of the method: as §1

[22] = system: Staphylococcus epidermidis 3519; test: as above; assay type: cell-based; details: BHI agar, 35-37°C, 20-24 hours, unit assumed
Summary of the method: as §1

[23] = system: Streptococcus agalactaciae CMX 508; test: as above; assay type: cell-based; details: BHI agar, 35-37°C, 20-24 hours, unit assumed
Summary of the method: as §1

[24] = system: Streptococcus bovis A5169; test: as above; assay type: cell-based; details: BHI agar, 35-37°C, 20-24 hours, unit assumed
Summary of the method: as §1

[25] = system: Streptococcus pyrogenes 2548 INDUC; test: as above; assay type: cell-based; details: BHI agar, 35-37°C, 20-24 hours, unit assumed
Summary of the method: as §1

[26] = system: Streptococcus pyrogenes CONST; test: as above; assay type: cell-based; details: BHI agar, 35-37°C, 20-24 hours, unit assumed
Summary of the method: as §1

[27] = system: Streptococcus pyrogenes EES61; test: as above; assay type: cell-based; details: BHI agar, 35-37°C, 20-24 hours, unit assumed
Summary of the method: as §1

[28] = system: Staphylococcus aureus NCTC 10649; test: In vivo antibacterial activity in mice (protection from lethal intraperitoneal infection); details: NCTC10649, 144 h, S. aureus, CF-1 female mice infected intraperitoneally with 100 times the LD50, treated at 1 and 5 hr after infection, cumulative mortalities on the sixth day
Protocol: (§2) The in vivo antibacterial activity of the compounds of the present invention was determined as follows: Aqueous solutions of the test compounds were prepared by dissolving the compound in distilled water, except for the compounds of examples 169 and 170 which were dissolved in a solution of 2% DMSO in distilled water.
(§3) After 18 hr incubation, a culture of Staphylococcus aureus NCTC 10649 was serially diluted by using 10-fold dilutions in 5% (w/v) hog gastric mucin. Cultures (0.5 mL) in a dilution from 10^-1 to 10^-8 were injected intraperitoneally into CF-1 female mice weighing approximately 20g. The LD50 (median lethal dose) for the test organism was calculated from the cumulative mortalities on the sixth day by the using the Reed and Muench procedure (Reed, L.J., and H. Muench, Amer. J. Hygiene, 27, 493 (1938)).
(§4) The above 18 hr culture was diluted in 5% (w/v) hog gastric mucin to obtain 100 times the LD50, and 0.5 mL was injected intraperitoneally into mice. The mice were treated subcutaneously (sc) or orally (po) with a specific amount of the test compound divided equally to be administered at 1 and 5 hr after infection. A group of 10 animals each for at least three dose levels was thus treated, and the deaths were recorded daily for 6 days. Ten mice were left untreated as infection control. ED50 values were calculated from the cumulative mortalities on the sixth day after infection by using the trimmed version of the Logit method ( Hamilton, M.A., R.C. Russo, and R.V. Thurston, Environ. Sci. Technol. 11, 714 (1977)).

Escherichia coli JUHL [29] = test: as above; details: 144 h, E. coli JUHL, mice infected intraperitoneally, treated at 1 and 5 hr after infection, cumulative mortalities on the sixth day
Protocol: as §2, §3, §4
The LD50 for Escherichia coli JUHL was determined in a manner similar to that above for S. aureus. The 18 hr cultures of this organism were also prepared for po and sc testing in mice, from which ED50 values were calculated. Positive controls were run with temafloxacin as the test compound, for which ED50 values were also calculated.

Compound	MIC values [1] [µg/mL]	MIC values [2] [µg/mL]	MIC values [3] [µg/mL]	MIC values (Escherichia coli DC-2) [µg/mL]	MIC values (Escherichia coli H560) [µg/mL]	MIC values (Escherichia coli JUHL [4]) [µg/mL]	MIC values (Escherichia coli KNK 437) [µg/mL]	MIC values (Escherichia coli SS) [µg/mL]	MIC values [5] [µg/mL]	MIC values [6] [µg/mL]	MIC values [7] [µg/mL]	MIC values [8] [µg/mL]	MIC values [9] [µg/mL]	MIC values [10] [µg/mL]	MIC values [11] [µg/mL]	MIC values [12] [µg/mL]	MIC values [13] [µg/mL]	MIC values [14] [µg/mL]	MIC values (Pseudomonas cepacia 296I) [µg/mL]	MIC values [15] [µg/mL]	further results
CCC[C@H](N)C(=O)NC1CCN(c2nc3c(-c4ccc(F)cc4F)cc(C(=O)O)c(=O)n3cc2F)C1 (stereo partly drawn) [Example 166, 9-(2,4-Difluorophenyl)-3-fluoro-2-(3-(N-(S)-norvalyl)aminopyrrolidin-1-yl)-6H-6-oxopyrido[1,2-a]pyrimidine-7-carboxylic acid hydrochloride salt]	3.1	3.1	12.5	12.5	0.78	0.78	6.2	0.05	1.56	25	50	> 100	> 100	> 100	6.2	3.1	0.39	6.2	> 100	> 100	MIC values [16]: 1.56 µg/mL; MIC values [17]: 1.56 µg/mL; MIC values [18]: 1.56 µg/mL; MIC values [19]: 0.39 µg/mL; MIC values [20]: 3.1 µg/mL; MIC values [21]: 0.39 µg/mL; MIC values [22]: 0.78 µg/mL; MIC values [23]: 3.1 µg/mL; MIC values [24]: 25 µg/mL; MIC values [25]: 1.56 µg/mL; MIC values [26]: 1.56 µg/mL; MIC values [27]: 1.56 µg/mL; ED50 ([28]; po): > 24 mg/kg; ED50 ([28]; sc): 8 mg/kg; ED50 (Escherichia coli JUHL [29]; po): 25 mg/kg; ED50 (Escherichia coli JUHL [29]; sc): < 2.5 mg/kg
C[C@H](N)C(=O)NC1CCN(c2nc3c(-c4ccc(F)cc4F)cc(C(=O)O)c(=O)n3cc2F)C1 (stereo partly drawn) [Example 167, 2-(3-(N-(S)-Alanyl)aminopyrrolidin-1-yl)-9-(2,4-difluorophenyl)-3-fluoro-6H-6-oxopyrido[1,2-a]pyrimidine-7-carboxylic acid hydrochloride]	12.5	3.1	12.5	25	1.56	1.56	25	0.05	3.1	50	50	100	> 100	> 100	6.2	12.5	1.56	6.2	100	> 100	MIC values [16]: 3.1 µg/mL; MIC values [17]: 1.56 µg/mL; MIC values [18]: 3.1 µg/mL; MIC values [19]: 0.78 µg/mL; MIC values [20]: 6.2 µg/mL; MIC values [21]: 0.78 µg/mL; MIC values [22]: 3.1 µg/mL; MIC values [23]: 6.2 µg/mL; MIC values [24]: 12.5 µg/mL; MIC values [25]: 1.56 µg/mL; MIC values [26]: 3.1 µg/mL; MIC values [27]: 6.2 µg/mL; ED50 ([28]; po): 14.4 mg/kg; ED50 ([28]; sc): 2.7 mg/kg; ED50 (Escherichia coli JUHL [29]; po): 16.6 mg/kg; ED50 (Escherichia coli JUHL [29]; sc): < 2.5 mg/kg
